Data reported in patent US8524861B2, “Treatment of bacterial infections” (priority 2004, dated 2013).
Where no end group is shown, it is not given here.

Columns and labels:
Assay type in all cases: cell-based
[1] = system: Pseudomonas aeruginosa (ATCC strain 9027); settings: for IC50: ATCC strain 9027; for Effectiveness against Pseudomonadales, in particular P. aeruginosa, in words: summary in description
Description: (§1) Bacterial Stocks—ATCC derived stock bacteria were obtained from Oxoid Limited. Pseudomonas aeruginosa (ATCC strain 9027) or Staphylococcus aureus (ATCC strain 6538P) were obtained in ‘Cultiloop’ format. Stocks were prepared by inoculating 20 ml of LB broth with a single Cultiloop, and incubating overnight at 37° C. Cells present after overnight incubation were harvested by removing larger aggregates by centrifugation (3000 g, 10 minutes), and withdrawing 16 ml of the supernatant, which was likely to contain mainly planktonic bacteria. To this, 4 ml of sterile glycerol was added (the latter having been sterilised by autoclaving). The resultant suspension was divided between 15× 1 ml cryovials before freezing at −85° C.
(§2) Preliminary experiments were carried out to estimate the amount to dilute bacterial stocks which when on addition of 25 μl of diluted stock to 100 μl of fresh LB broth would result in bacteria in log phase growth after overnight incubation at 37° C.
(§3) The peptides were examined for antibacterial efficacy against Staphylococcus aureus. To test the efficacy of peptides, dilutions of test peptides or PBS (for use as a control) were prepared in LB broth, and 100 μl aliquots of these placed in 96-well plates. A vial of planktonic bacterial stock was thawed in a 37° C. incubator and diluted to the level previously determined which would produce log phase growth after overnight incubation (see above). 25 μl of this bacterial dilution was then added to the test wells (some wells containing LB broth without peptide were left without any bacterial inoculation, these being used as a blank). After overnight growth, the concentration of bacteria in individual wells was assessed by measuring absorbance at 620 nm, in a microplate spectrophotometer. The average absorbance of wells for specific concentrations of peptides was calculated, and from this the percentage inhibition (relative to untreated wells) was also calculated and plotted against concentration (along with an estimate of error on that % inhibition).
Peptides in accordance with the invention were also examined for antibacterial efficacy against Pseudomonas aeruginosa using the same technique as described above to calculate the IC50 values.
Points were obtained by dividing the average for six treated wells by the average for six untreated wells, and bars show an estimate of the error for these calculated values.
(§4) The inventor constructed an expanded library of peptides derived from either apolipoprotein B or apolipoprotein E in order to further evaluate polypeptides in accordance with the invention. Further experiments were then conducted to investigate the antibacterial activity of this peptide library against the bacteria P. aeroginosa, S. aureus and S. pneumoniae. The methods used to determine the IC50 values for each peptide were as described in the Example 1.

[2] = system: Staphylococcus aureus, Pseudomonas aeruginosa, and Streptococcus pneumoniae; assay: Antibacterial activity, overall statements over the test bacteria
Text: The inventors conducted exhaustive experiments to assess the antibacterial activity of peptides from apolipoproteins and derivatives thereof. Peptides and derivatives from ApoE and ApoB were a particular focus. […] Example 1 illustrates the efficacy of the polypeptides according to the invention compared to apoE141-149 and apoB3359-3367 (i.e. non-tandem repeats) and other peptides derived from apolipoproteins.
The activity of polypeptides in accordance with the invention can be seen in Tables 5, 6, 7 and 8.
as §3, §4

[3] = system: Staphylococcus aureus (ATCC strain 6538P); settings: for IC50: ATCC strain 6538P; for Activity against Staphylococcus, in particular S. aureus, in words: summary in description
Description: as §1, §2, §3, §4

[4] = system: Streptococcus pneumoniae
Description: as §3, with “inhibition). […] The inventor constructed an expanded library of peptides derived from either apolipoprotein B or apolipoprotein E in order to further evaluate polypeptides in accordance with the invention. Further experiments were then conducted to investigate the antibacterial activity of this peptide library against the bacteria P. aeroginosa, S. aureus and S. pneumoniae. The methods used to determine the IC50 values for each peptide were as described in the Example 1.” for “inhibition).”

## Ac-LRKLRKRLLLRKLRKRWW-NH2 (N-terminus and C-terminus assumed) [MU_112]
[1]
  IC50: 7 µM
[2]
  Antibacterial activity, in words, bacterium not specified: particularly effective
[3]
  IC50: 7 µM

## Ac-LRKLRKRLLRLRKLRKRLLR-NH2 (N-terminus and C-terminus assumed) [MU_82]
[1]
  Effectiveness against Pseudomonadales, in particular P. aeruginosa, in words: particularly effective
[2]
  Antibacterial activity, in words, bacterium not specified: particularly effective
[3]
  IC50: 13 µM

## Ac-LRKLRKRLLWRKWRKRLL-NH2 (N-terminus and C-terminus assumed) [MU_113]
[1]
  Effectiveness against Pseudomonadales, in particular P. aeruginosa, in words: particularly effective
[3]
  IC50: 11 µM

## Ac-LRKLRKRLLWRKWRKRWW-NH2 (N-terminus and C-terminus assumed) [MU_111]
[1]
  IC50: 12.5 µM
[3]
  IC50: 7 µM

## Ac-LRKLRKRLRKLRKR-NH2 (N-terminus and C-terminus assumed) [GIN 08]
[1]
  IC50: 9.2 µM
  Effectiveness against Pseudomonadales, in particular P. aeruginosa, in words: particularly effective
[4]
  IC50: > 53 µM

## Ac-LRKRLLLRKLRKRLL-NH2 (N-terminus and C-terminus assumed) [GIN 02]
[1]
  IC50: 8.5 µM
  Effectiveness against Pseudomonadales, in particular P. aeruginosa, in words: particularly effective

## Ac-WRKLRKRLLLRKLRKRLL-NH2 (N-terminus and C-terminus assumed) [MU_115]
[1]
  IC50: 3 µM
  Effectiveness against Pseudomonadales, in particular P. aeruginosa, in words: particularly effective
[2]
  Antibacterial activity, in words, bacterium not specified: particularly effective
[3]
  IC50: 9 µM

## Ac-WRKWRKRLLLRKLRKRLL-NH2 (N-terminus and C-terminus assumed) [MU_114]
[1]
  Effectiveness against Pseudomonadales, in particular P. aeruginosa, in words: particularly effective
[3]
  IC50: 5.5 µM
  Activity against Staphylococcus, in particular S. aureus, in words: particularly active

## CRKCRKRCCCRKCRKRCC [MU_12]
[2]
  Antibacterial activity, in words, bacterium not specified: do not show antibacterial activity

## DRKDRKRDDDRKDRKRDD [MU_3]
[2]
  Antibacterial activity, in words, bacterium not specified: do not show antibacterial activity

## FRKFRKRFFFRKFRKRFF-NH2 (C-terminus assumed) [MU_7]
[1]
  IC50: 6 µM
[2]
  Antibacterial activity, in words, bacterium not specified: particularly effective
[3]
  IC50: 11 µM

## IRKIRKRIIIRKIRKRII-NH2 (C-terminus assumed) [MU_8]
[1]
  IC50: 45 µM
[3]
  IC50: > 53 µM

## LLRKRLKRLLLRKRLKRL-NH2 (C-terminus assumed) [MU_24]
[1]
  IC50: 7 µM
[2]
  Antibacterial activity, in words, bacterium not specified: particularly effective
[3]
  IC50: 34 µM

## LRKLRKRLL [apoE141-149, reference compound]
[2]
  Antibacterial activity, in words, bacterium not specified: no detectable antibacterial activity

## LRKLRKRLL-NH2 (C-terminus assumed) [MU_46]
[1]
  IC50: 22 µM
[4]
  IC50: > 53 µM

## LRKLRKRLLLRK [GIN 05]
[2]
  Antibacterial activity, in words, bacterium not specified: do not show antibacterial activity

## LRVRLASHLRKLRKRLLRDADDLQKRLAVY LRVRLASHLRKLRKRLLRDADDLQKRLAVY (LRVRLASHLRKLRKRLLRDADDLQKRLAVYLRVRLASHLRKLRKRLLRDADDLQKRLAVY) [tandem repeat of Azuma's peptide, 60-mer dimer of apoE133-162]
[2]
  Antibacterial activity, in words, bacterium not specified: improved antibacterial efficacy

## MRKLRKRLMMRKLRKRLM-NH2 (C-terminus assumed) [MU_43]
[1]
  IC50: 17 µM
[2]
  Antibacterial activity, in words, bacterium not specified: particularly effective

## MRKMRKRMMMRKMRKRMM-NH2 (C-terminus assumed) [MU_5]
[1]
  IC50: > 53 µM
[3]
  IC50: > 53 µM

## RKRGWKWRKRGWKW-NH2 (C-terminus assumed) [MU_73]
[1]
  IC50: 42.5 µM
[2]
  Antibacterial activity, in words, bacterium not specified: particularly effective
[3]
  IC50: 22 µM

## RLTRKRGLK [apoB3359-3367, monomeric 9-mer of apolipoprotein B, reference compound]
[2]
  Antibacterial activity, in words, bacterium not specified: no detectable antibacterial activity

## RLTRKRGRLTRKRG-NH2 (C-terminus assumed) [MU_74]
[1]
  IC50: 31 µM
[3]
  IC50: > 53 µM

## RWRKRGRKRWRKRGRK-NH2 (C-terminus assumed) [MU_69]
[1]
  IC50: > 53 µM
[3]
  IC50: 27 µM

## RWRKRWRKRWRKRWRK-NH2 (C-terminus assumed) [MU_37]
[1]
  IC50: 23 µM
[2]
  Antibacterial activity, in words, bacterium not specified: particularly effective
[3]
  IC50: 35 µM

## RWRKRWRKRWRKRWRK-NH2 (C-terminus assumed) [MU_71]
[1]
  IC50: 28 µM
[3]
  IC50: 18.5 µM

## RWRKRWRWRKRWRWRKRW-NH2 (C-terminus assumed) [MU 84]
[1]
  IC50: 53 µM
[3]
  IC50: 15 µM

## WRKRWWRWRKRWWR-NH2 (C-terminus assumed) [MU_81]
[1]
  IC50: 28 µM
[3]
  IC50: 20 µM

## WRKWRKFFFRKWRKRWW-NH2 (C-terminus assumed) [MU_116]
[1]
  IC50: 14 µM
[3]
  IC50: 6.5 µM

## WRKWRKRFFWRKWRKRFF-NH2 (C-terminus assumed) [MU_61]
[1]
  IC50: 3 µM
  Effectiveness against Pseudomonadales, in particular P. aeruginosa, in words: particularly effective
[2]
  Antibacterial activity, in words, bacterium not specified: particularly effective
[3]
  IC50: 5 µM
  Activity against Staphylococcus, in particular S. aureus, in words: particularly active

## WRKWRKRWRKWRKR-NH2 (C-terminus assumed) [GIN 32]
[1]
  IC50: 5 µM

## WRKWRKRWRKWRKRW-NH2 (C-terminus assumed) [MU_59]
[1]
  IC50: 7.5 µM
[2]
  Antibacterial activity, in words, bacterium not specified: particularly effective
[3]
  IC50: 11 µM

## WRKWRKRWWFRKFRKRFF-NH2 (C-terminus assumed) [MU_117]
[1]
  IC50: 10 µM
[3]
  IC50: 7 µM

## WRKWRKRWWFRKWRKRWW-NH2 (C-terminus assumed) [MU_60]
[1]
  IC50: 12.5 µM
[2]
  Antibacterial activity, in words, bacterium not specified: particularly effective
[3]
  IC50: 6 µM
  Activity against Staphylococcus, in particular S. aureus, in words: particularly active

## WRKWRKRWWRKWRKRWW-NH2 (C-terminus assumed) [MU_58]
[1]
  IC50: 7.5 µM
[2]
  Antibacterial activity, in words, bacterium not specified: particularly effective
[3]
  IC50: 8 µM
  Activity against Staphylococcus, in particular S. aureus, in words: particularly active

## WRKWRKRWWRWRKWRKRWWR-NH2 (C-terminus assumed) [MU_83]
[1]
  IC50: 15 µM
[2]
  Antibacterial activity, in words, bacterium not specified: particularly effective
[3]
  IC50: 9 µM

## WRKWRKRWWWRKWRKRWW-NH2 (C-terminus assumed) [MU_4]
[2]
  Antibacterial activity, in words, bacterium not specified: particularly effective
[3]
  Activity against Staphylococcus, in particular S. aureus, in words: particularly active

## WRWKKKWRKWRWKKKWRK-NH2 (C-terminus assumed) [MU_26]
[1]
  IC50: 52 µM
[3]
  IC50: 52 µM

## WRWRRRWRKWRWRRRWRK-NH2 (C-terminus assumed) [MU_25]
[1]
  IC50: > 53 µM
[3]
  IC50: > 53 µM

## YRKYRKRYYYRKYRKRYY-NH2 (C-terminus assumed) [MU_6]
[1]
  IC50: > 53 µM
[3]
  Activity against Staphylococcus, in particular S. aureus, in words: particularly active

## modified apoB3359-3367: modified form of the apoB3359-3367 9-mer; sequence only in the drawing of Table 1 (LRTRKRGRK) [reference compound]
[2]
  Antibacterial activity, in words, bacterium not specified: no detectable antibacterial activity
